The test system of this test is HMPV clinical isolate A2 strain TN 94-49. As to the kind of experiment: HMPV antiviral assay, Method 2 (LLC-MK2 cells with CP-100-356, ATP-Lite). The format is cell-based. The conditions noted are these: human metapneumovirus. The procedure, abridged:
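EC50 comes from a four-parameter fit of percent cell viability (ATP-Lite, normalized to virus-only and cell-only wells) after 7 days at 37 °C. Infection used HMPV A2 TN 94-49 at MOI 0.16 in LLC-MK2 cells, with 2 μM P-gp inhibitor CP-100-356 and 2 μg/mL TPCK-trypsin final; dose range 200 nM top, 2.5-fold, 10 points, duplicate.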

The mark [1] stands for this setting: 168 h, hMPV A2 TN/94-49, LLC-MK2 cells with 4 μM CP-100-356, 7 days, ATP-Lite.
Setting [2] is: hMPV A2 TN/94-49, LLC-MK2 cells with CP-100-356, Method 2.

For orientation: EC50 means the concentration giving half of the maximal effect. A lower EC50 goes with greater potency. Regarding `COc1nccc(-c2nc([C@@](O)(CNC(=O)c3cc(OC)c4nc(C5CC5)oc4c3)C3(F)CC3)cc3c2OC[C@]3(C)C(N)=O)c1Cl` [Example 645], the EC50 under setting [1] was under 200 nM.

As to `COc1cc(-c2nc([C@@](O)(CNC(=O)c3cc(OC4CC4)c4nn(C5CC5)cc4c3)c3ccccc3)cc3c2OC[C@]3(C)C(N)=O)c(F)cn1` [Example 900], the EC50 under setting [1] was over 200 nM.

In the case of `C[C@]1(C(N)=O)COc2c1cc([C@@](O)(CNC(=O)c1cc(OC(F)F)c3ncc(Cl)cc3c1)c1ccccc1)nc2-c1cc(Cl)c(F)cc1F` [Example 231], under setting [2], the concentration giving a half-maximal response (EC50) was under 200 nM.

In the case of `COc1cc(C(=O)NC[C@](O)(c2cc3c(c(-c4ccnc(Cl)c4Cl)n2)OC[C@]3(C)C(N)=O)C2(F)CC2)cc2cn(C(F)F)nc12` [Example 521], the concentration for a half-maximal effect (EC50) under setting [2] is under 200 nM.

`C[C@]1(C(N)=O)COc2c1cc([C@@](O)(CNC(=O)c1cc(OC3CC3)n3nc(C4CC4)cc3c1)c1ccccc1)nc2-c1cc(Cl)c(F)cc1F` [Example 191] displayed an EC50 under setting [2] of under 200 nM.

`COc1cc(C(=O)NC[C@](O)(c2cc3c(c(-c4ccnc(C(F)(F)F)c4F)n2)OC[C@]3(C)C(N)=O)C2CC2)cc2cn(C(F)F)nc12` [Example 799]: the EC50 under setting [1] was under 200 nM.

Turning to `COc1cc(C(=O)NC[C@](O)(c2cc3c(c(-c4ccc(SC(F)(F)F)cc4)n2)OC[C@]3(C)C(N)=O)C2CC2)cc2cn(C3CC3)nc12` [Example 386], under setting [2], the EC50 was over 200 nM.

Under setting [2], `COc1cc(C(=O)NC[C@](O)(c2cc3c(c(-c4ccnc(Cl)c4Cl)n2)OC[C@]3(C)C(N)=O)C2CC2)cn2cc(C3CC3)nc12` [Example 578] showed an EC50 of under 200 nM.

Regarding `COc1cc([C@](O)(CNC(=O)c2cc(OC)c3nn(C4CC4)cc3c2)c2cc3c(c(-c4cccc(Cl)c4Cl)n2)OC[C@]3(C)C(N)=O)ccn1` [Example 494], the EC50 under setting [2] was under 200 nM.

Compound `C[C@]1(C(N)=O)COc2c1cc([C@@](O)(CNC(=O)c1cc(OC3CC3)c3nc(C4CC4)sc3c1)c1ccccc1)nc2-c1cc(Cl)c(F)cc1F` [Example 190] came in with an EC50 under setting [2] of over 200 nM.

`C[C@]1(C(N)=O)COc2c1cc([C@@](O)(CNC(=O)c1cc(OC3CC3)c3nn(C(F)F)cc3c1)C(F)(F)F)nc2-c1ccnc(C(F)(F)F)c1Cl` [Example 594]: the EC50 under setting [2] was under 200 nM.

In turn, `COc1cc(C(=O)NC[C@](O)(c2cccc(F)c2)c2cc3c(c(-c4cc(C(F)(F)F)ncc4F)n2)OC[C@]3(C)C(N)=O)cc2cn(C3CC3)nc12` [Example 409] displayed an EC50 under setting [2] of over 200 nM.

Under setting [2], `COc1cc(C(=O)NC[C@@](O)(c2ccccc2)c2cc3c(c(-c4cc(C(F)(F)F)c(F)cc4F)n2)OC[C@]3(C)C(N)=O)cc2cn(C3(F)CC3)nc12` [Example 303] yielded an EC50 of under 200 nM.

Consider `COc1cc(C(=O)NC[C@@](O)(c2ccccc2)c2cc3c(c(-c4cc(C(F)(F)F)c(F)cc4F)n2)OC[C@]3(C)C(N)=O)cc2cn(C3CC3)nc12` [Example 302], for which the half-maximal effective concentration (EC50) under setting [2] is under 200 nM.

`C[C@]1(C(N)=O)COc2c1cc([C@@](O)(CNC(=O)c1cc(Cl)c3nn(C4CC4)cc3c1)C1(F)CC1)nc2-c1ccnc(Cl)c1Cl` [Example 523] registered an EC50 under setting [2] of under 200 nM.

In turn, `COc1cc(C(=O)NC[C@](O)(c2cc3c(c(-c4ccnc(C)c4Cl)n2)OC[C@]3(C)C(N)=O)C2(F)CC2)cc2oc(C(F)F)nc12` [Example 533] showed an EC50 under setting [2] of over 200 nM.

With `COc1nccc(-c2nc([C@@](O)(CNC(=O)c3cc(OC4CC4)c4nn(C5(F)CC5)cc4c3)C(C)C)cc3c2OC[C@]3(C)C(N)=O)c1Cl` [Example 892], the EC50 under setting [1] is under 200 nM.

Turning to `COc1nccc(-c2nc([C@@](O)(CNC(=O)c3cc(OC)n4nc(C5CC5)cc4c3)C(C)C)cc3c2OC[C@]3(C)C(N)=O)c1Cl` [Example 890], the EC50 under setting [1] is over 200 nM.

As for `COc1nccc(-c2nc([C@@](O)(CNC(=O)c3cc(OC)c4nn(C5(F)CC5)cc4c3)C3(F)CC3)cc3c2OC[C@]3(C)C(N)=O)c1Cl` [Example 654], the half-maximal effective concentration (EC50) under setting [1] is under 200 nM.

Regarding `COc1cc(C(=O)NC[C@](O)(c2cc3c(c(-c4cc(Cl)c(F)cc4F)n2)OC[C@]3(C)C(N)=O)c2nccn2C)cc2cn(C3CC3)nc12` [Example 464], the EC50 under setting [2] is over 200 nM.

As to `C[C@]1(C(N)=O)COc2c1cc([C@@](O)(CNC(=O)c1ccc3nc(C4CC4)oc3c1)c1ccccc1)nc2-c1cc(C(F)F)c(F)cc1F` [Example 311], the EC50 under setting [2] is under 200 nM.

Under setting [2], `C[C@]1(C(N)=O)COc2c1cc([C@@](O)(CNC(=O)c1ccc3nc(C4CCC4)oc3c1)c1ccccc1)nc2-c1cc(Cl)c(F)cc1F` [Example 221] came in with an EC50 of over 200 nM.

The compound `COc1nccc(-c2nc([C@@](O)(CNC(=O)c3cc(OC4CC4)c4nn(C5(F)CC5)cc4c3)C3(F)CC3)cc3c2OC[C@]3(C)C(N)=O)c1Cl` [Example 658] showed an EC50 under setting [1] of under 200 nM.

For `COc1cc(C(=O)NC[C@@](O)(c2ccccc2)c2cc3c(c(-c4cccc5c4OCO5)n2)OC[C@]3(C)C(N)=O)cc2cn(C3(F)CC3)nc12` [Example 366], the EC50 under setting [2] is over 200 nM.

Under setting [1], `COc1cc(C(=O)NC[C@](O)(c2cc3c(c(-c4ccnc(C5CCOCC5)c4Cl)n2)OC[C@]3(C)C(N)=O)C2CC2)cc2cn(C3CC3)nc12` [Example 903] returned an EC50 of over 200 nM.

In turn, `COc1cc(C(=O)NC[C@@](O)(c2ccccc2)c2cc3c(c(-c4cc(Cl)c(F)cc4F)n2)OC[C@]3(C)C(N)=O)cn2cc(C3CC3)nc12` [Example 115] returned a 50% effective concentration (EC50) under setting [2] of under 200 nM.

For `COc1nccc(-c2nc([C@@](O)(CNC(=O)c3cc(OC)c4nn(C5CC5)cc4c3)c3ccc(F)cc3)cc3c2OC[C@]3(C)C(N)=O)c1Cl` [Example 696], the EC50 under setting [1] is under 200 nM.

Compound `COc1cc(C(=O)NC[C@](O)(c2cc3c(c(-c4c(F)cncc4F)n2)OC[C@]3(C)C(N)=O)C2CC2)cc2cn(C3CC3)nc12` [Example 433] yielded an EC50 under setting [2] of under 200 nM.

Regarding `COc1nccc(-c2nc([C@@](O)(CNC(=O)c3cc(OC4CC4)n4nc(C5CC5)cc4c3)C3CC3)cc3c2OC[C@]3(C)C(N)=O)c1Cl` [Example 606], the EC50 under setting [2] is under 200 nM.

Under setting [2], `COc1cc([C@](O)(CNC(=O)c2cc(OC)c3nn(C(F)F)cc3c2)c2cc3c(c(-c4cccc(Cl)c4Cl)n2)OC[C@]3(C)C(N)=O)cc(OC)n1` [Example 498] showed an EC50 of under 200 nM.

`COc1cc(C(=O)NC[C@](O)(c2cc3c(c(-c4ccnc(C)c4Cl)n2)OC[C@]3(C)C(N)=O)C2CC2)cc2cn(C3CC3)nc12` [Example 871] returned an EC50 under setting [1] of under 200 nM.

As to `C[C@]1(C(N)=O)COc2c1cc([C@@](O)(CNC(=O)c1ccc3nc(C4(F)CC4)oc3c1)c1ccccc1)nc2-c1cc(Cl)c(F)cc1F` [Example 219], the EC50 under setting [2] is under 200 nM.

`C[C@]1(C(N)=O)COc2c1cc([C@@](O)(CNC(=O)c1cc(OC3CC3)c3ncc(Cl)cc3c1)C1CC1)nc2-c1cc(F)c(F)cc1F` [Example 104] registered an EC50 under setting [2] of under 200 nM.

`COc1cc(-c2nc([C@@](O)(CNC(=O)c3cc(OC)c4nn(C5CC5)cc4c3)c3ccccc3)cc3c2OC[C@]3(C)C(N)=O)c(F)cn1` [Example 635] showed an EC50 under setting [1] of under 200 nM.

Under setting [2], `COc1cc(C(=O)NC[C@](O)(c2cc3c(c(-c4ccc(F)c(C(F)(F)F)c4)n2)OC[C@]3(C)C(N)=O)C2CC2)cc2oc(C3CC3)nc12` [Example 330] displayed an EC50 of under 200 nM.

Turning to `C[C@]1(C(N)=O)COc2c1cc([C@@](O)(CNC(=O)c1ccc3nc(Cc4ccccc4)oc3c1)c1ccccc1)nc2-c1cc(Cl)c(F)cc1F` [Example 230], the EC50 under setting [2] was over 200 nM.

In turn, `COc1cc(C(=O)NC[C@@](O)(c2ccccc2)c2cc3c(c(-c4cc(Cl)c(F)cc4F)n2)OC[C@]3(C)C(N)=O)cc(O)c1NC(=O)C1(F)CC1` [Example 242] had an EC50 under setting [2] of over 200 nM.

The compound `COc1cc(-c2nc([C@@](O)(CNC(=O)c3cc(OC)c4nn(C5CC5)cc4c3)C(F)(F)F)cc3c2OC[C@]3(C)C(N)=O)c(F)cn1` [Example 831] came in with an EC50 under setting [1] of over 200 nM.

Consider `C[C@]1(C(N)=O)COc2c1cc([C@@](O)(CNC(=O)c1cc(OC3CC3)c3ncc(Cl)cc3c1)c1ccccc1)nc2-c1cc(F)c(F)cc1F` [Example 197], for which, under setting [2], the EC50 is under 200 nM.

Compound `COc1cc(C(=O)NC[C@](O)(c2cc3c(c(-c4ccnc(C(C)C)c4Cl)n2)OC[C@]3(C)C(N)=O)C2CC2)cc2cc(C3CC3)nn12` [Example 910] came in with an EC50 under setting [1] of over 200 nM.

Turning to `COc1cc(C(=O)NC[C@@](O)(c2ccccc2)c2cc3c(c(-c4cc(C(F)F)c(F)cc4F)n2)OC[C@]3(C)C(N)=O)cc2cn(C(F)F)nc12` [Example 300], the EC50 under setting [2] is under 200 nM.

The values are drawn from US20240368174A1, “Antiviral Heterocyclic Compounds” (Enanta Pharmaceuticals, Inc., priority 2023, published 2024).
